Values quoted from earlier work, collected in patent US9683982B2, “Method for diagnosis and/or prognosis of cancers by analysis of the mechanical properties of tumor cells” (Universität Leipzig, priority 2010, dated 2017).

Test system: cells of the cell line MCF7
Conditions: addition of 100 nmol/l TPA for 18 h in culture

CCCCCCCCCCCCCC(=O)O[C@@H]1[C@@H](C)[C@@]2(O)[C@@H](C=C(CO)C[C@]3(O)C(=O)C(C)=C[C@@H]23)[C@@H]2C(C)(C)[C@]12OC(C)=O [TPA, 12-O-tetradecanoylphorbol-13-acetate]
invasive potential and metastasis-forming potential: significant increase
